Columns and labels:
[1] = system: MPYS; test: MPYS oxidation (disulfide bonded homodimer, non-reducing SDS-PAGE); format: cell-based; conditions: ER stress inducer; cells not given
From the text: (§1) It was also noticed that after the thiol reductase reaction, a large portion of MPYS occurs in a ˜80 kDa SDS resistant form consistent with the predicted size of a homodimer. The present inventors have shown that MPYS is dimeric in mouse B cells. To determine whether MPYS occurs as a non-disulfide-bonded dimer that becomes […] disulfide bonded upon oxidation, the chemical crosslinker Dithiobis[succinimidyl propionate] (DSP) was used to detect the endogenous MPYS complex in mouse splenocytes. In non-reducing SDS-PAGE, DSP treated MPYS ran as a single band of ˜80 kDa, the predicted size of a MPYS homodimer while non-DSP treated mock (or DTT treated) MPYS ran at the monomer size (˜40 kDa). It was also discovered that Flag-tagged MPYS associates with HA-MPYS when the two were co-expressed. Thus, the ˜80 kDa band seen on the non-reducing gels is a MPYS homodimer. Since this homodimer is sensitive to SDS, its dimerization is not mediated by intermolecular disulfide bonds.
(§2) The appearance of the SDS resistant MPYS homodimer after the thiol reductase reaction indicated the formation of intermolecular disulfide bonds in homodimeric MPYS is a consequence of oxidation. […] […] H2O2) and the thiol reductase reaction can lead to formation of intermolecular disulfide bonds in homodimeric MPYS.

[2] = biological target: T1, MPYS (Mus musculus, UniProt Q3TBT3); test: as above; format: cell-based; conditions: RAW264.7 cells
T1 construct: used to detect the endogenous MPYS complex in mouse splenocytes; endogenous in cells; host or cells: mouse splenocytes; K46 mouse B lymphoma cells; RAW264.7 mouse macrophage cells
T1 sequence (Q3TBT3 1-378): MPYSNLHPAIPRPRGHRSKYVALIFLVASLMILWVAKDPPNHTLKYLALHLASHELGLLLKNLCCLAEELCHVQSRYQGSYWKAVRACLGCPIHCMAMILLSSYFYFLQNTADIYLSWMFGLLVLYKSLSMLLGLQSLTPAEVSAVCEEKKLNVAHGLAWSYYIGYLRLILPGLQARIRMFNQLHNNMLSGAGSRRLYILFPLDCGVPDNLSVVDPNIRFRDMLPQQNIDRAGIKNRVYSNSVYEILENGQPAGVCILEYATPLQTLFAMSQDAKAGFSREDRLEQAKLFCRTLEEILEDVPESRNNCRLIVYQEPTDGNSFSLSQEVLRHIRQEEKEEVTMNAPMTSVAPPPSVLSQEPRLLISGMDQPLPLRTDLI
From the text: as §1, §2

[3] = system: K46 B lymphoma cells; test: MHC II mAb-induced cell death of K46 cells (Annexin V/PI, DiOC6/PI flow cytometry); format: cell-based, murine; conditions: for effect of inhibitor on MHC II mAb-induced death response: K46 cells pre-treated with inhibitor
Experimental: K46 cells were suspended in 5% complete IMDM media at a concentration of 10^6 cells/mL and then transferred to round bottomed 96-well plates (100 μL/well) and cultured at 37° C. for 1 h. Biotinylated MHC II mAbs were added into the wells and incubated for 12 min. Avidin was then added into the wells and cells were cultured for the indicated time. PI (2 μg/mL) and Annexin V-Alexa Fluor 488 (1 μL/100 μL cells) (A-13201, Molecular Probes), or DiOC6 (50 nM) and PI (2 μg/mL) was used to measure apoptotic or dead cells by flow cytometry.
(§3) ERK inhibitor PD98059 (Calbiochem, 513000), AKT inhibitor LY294002 (Calbiochem, 440202), and p38 inhibitor SB203580 (Calbiochem, 559389) were used in this study. The inhibitor was added to cells at 5×10^6 cells/mL and cultured for 4 hrs. Samples were then split into 1×10^6 cells/mL and cell death was induced and measured as above. To inhibit src kinase, PP2 (Calbiochem, 529573) was added into cells and cultured for 30 min before cell death was induced as above.

[4] = system: ERK; test: MHC II induced ERK activation (phospho-ERK blotting); format: cell-based, murine; conditions: K46 cells; PD98059 at 50 μM
Experimental: as §3
(§4) Cells were lysed in 0.33% CHAPS buffer (150 mM NaCl, 10 mM Tris pH 7.5, 10 mM sodium pyrophosphate, 2 mM Na3VO4, 10 mM NaF, 0.4 mM EDTA, 1 mM PMSF, and 1 μg/mL each of aprotinin, α1-antitrypsin, and leupeptin) (40×10^6/mL) at 4° C. for 1.5 h or overnight. Cell lysates were centrifuged at 12,000 g at 4° C. for 20 min. Supernatants were analyzed on a 10% SDS-PAGE gel. The gel was transferred to a PVDF membrane and proteins were probed with Abs and visualized using an ODYSSEY Infrared Imaging System (LI-COR). […]

[5] = system: tyrosine phosphorylation in K46 cells; test: MHC II mAb-induced tyrosine phosphorylation (immunoblotting); format: cell-based, murine
Experimental: as §3, §4

[6] = system: calcium mobilization in K46 cells; test: MHC II mAb-induced calcium mobilization (Indo-1AM); format: cell-based, murine
Experimental: Cells were loaded with Indo-1AM (Molecular Probes, Eugene, Oreg.) for 30 min at 37° C. as recommended by the manufacturer. Anti-MHC II mAb (10 μg/mL) was then added to the suspension for another 12 min at 37° C. before cells were washed and suspended in IMDM supplemented with 2% FCS. The cells (10^6 cells/mL) were analyzed before and after stimulation via cros slinking with avidin (20 μg/mL). Data were analyzed by Flow-Jo software (Tree Star, Inc., San Carlos, Calif.).

[7] = system: IFNβ promoter; test: MPYS induced IFNβ reporter activation in TLR4-293 cells; format: cell-based, human; conditions: TLR4-293T / TLR4-293GT cells
Experimental: (§5) 293 GT cells and their derivatives (˜1×10^5) were seeded in 24-well dishes and transfected the following day using Effectene transfection reagent kit (Qiagen, cat #301427). Reporter assays were performed as previous described. Id.
(§6) Cells were seeded in 24-well dishes (˜1×10^5/ml) and transfected the following day using Effectene transfection reagent kit (Qiagen, 301427). Reporter assays were performed as previous described by Bin et al., in J Biol. Chem., 2003, 278, 24526-24532. All experiments were repeated at least three times and results are representative.

[8] = system: NFκB; test: MPYS induced NFκB reporter activation in TLR4-293 cells; format: cell-based, human; conditions: TLR4-293T / TLR4-293GT cells
Experimental: as §5, §6

[9] = system: RAW264.7 macrophage cells; test: Listeria monocytogenes induced IFNβ response in RAW264.7 cells (IFNβ-luc); format: cell-based, mouse
Experimental: RAW264.7, K46 B lymphoma cells and the 293GT cells were maintained in IMDM supplemented with 5% FBS. 293MT cells were maintained in DMEM (GIBCO, cat: 11965), 5% FBS (Biosource, 200p-500HI), sodium pyruvate (GIBCO 11360, 1 mM), HEPES buffer (GIBCO 15630-080, 10 mM) and 2-ME (50 μM) (Life Technologies, Gaithersburg Md.). The RAW264.7 cells stably expressing the IFNβ-Luciferase construct were generated by co-transfecting RAW264.7 cells with pGL3-IFNβ-Luciferase (Promega) and p-Puromycin plasmids (Clonetch). The stable cell line was established under puromycin selection (4 μg/ml).
RAW264.7 cells expressing the IFNβ-luc construct were infected with Listeria monocytogenes strain 10403S at multiplicity of five bacteria/cell. Cells were washed at 1 h after infection. Live bacterial were killed by addition of gentamicin. Whole cell lysates were prepared 5.5 h after infection. Luciferase activity was read with BD Monolight kit and Synergy reader.

[10] = system: TLR4-293T cells; test: Measurement of intracellular ROS (H2DCFDA flow cytometry); format: cell-based, human
Experimental: Cells were washed and suspended in PBS, and then culture with H2DCFDA (5 μM) (Invitrogen, D399) for 20 min at 37° C. They were then washed in PBS and the fluorescence was measured by flow cytometry.

For `C[C@H]1CCC/C=C/[C@@H]2C[C@H](O)C[C@H]2[C@H](O)/C=C/C(=O)O1` [Brefeldin A], the “formation of oxidized MPYS” value [1] was “generated oxidized MPYS”.

`OO` [H2O2] was tested, and the “formation of oxidized MPYS” value [2] was “led to the formation of oxidized MPYS”.

With `O=c1cc(N2CCOCC2)oc2c(-c3ccccc3)cccc12` [LY294002] the “effect of inhibitor on MHC II mAb-induced death response” value (shortened to “effect of inhibitor”) [3] was “no significant effect”.

For `COc1cccc(-c2cc(=O)c3ccccc3o2)c1N` [PD98059], the “inhibition of MHC II mediated cell death” value ([3]; inhibitor at 50 μM, K46 cells) was “about 50%” and the “effect on MHC II induced ERK activation” value [4] was “did not completely inhibit”.

For `CC(C)(C)n1nc(-c2ccc(Cl)cc2)c2c(N)ncnc21` [PP2], the “effect of inhibitor” value [3] was “remained largely intact”, the “effect on MHC II mAb-induced tyrosine phosphorylation” value ([5]; K46 cells) was “blocked” and the “effect on MPYS tyrosine phosphorylation and recruitment of SHP-1 and SHIP-1” value ([5]; after MHC class II aggregation) was “blocked”. For the same compound, the “effect on MHC II mAb-induced calcium responses” value [6] was “blocked” and the “effect on MHC II induced ERK activation” value [4] was “neither MHC class II-mediated activation of ERK nor apoptosis was inhibited”.

With `C[S+]([O-])c1ccc(-c2nc(-c3ccncc3)c(-c3ccc(F)cc3)[nH]2)cc1` (centres unmarked) [SB203580] the “effect of inhibitor” value [3] was “no significant effect”.

For `C=C(C)[C@H]1Cc2c(ccc3c2O[C@@H]2COc4cc(OC)c(OC)cc4[C@@H]2C3=O)O1` [rotenone], the “effect on MPYS induced IFNβ reporter activation” value [7] was “completely inhibited”, the “effect on MPYS induced NFκB reporter activation” value [8] was “completely inhibited” and the “effect on Listeria monocytogenes induction of IFNβ production” value [9] was “significantly inhibited”. The “formation of oxidized MPYS” value [2] was “led to the formation of oxidized MPYS” and the “cellular ROS level” value [10] was “increased cellular ROS level”.

With Poly(I:C) the “formation of oxidized MPYS” value [2] was “did not generate oxidized MPYS”.

Reference: US20110212111A1, “MHC II Associated Protein and Uses Thereof” (priority 2008, published 2011)
